Measurements published in ChEMBL document CHEMBL3779884, “Anti-Staphylococcal Biofilm Effects of Human Cathelicidin Peptides” (ACS Med Chem Lett, 2016).
Converted amounts (≈) assume the structure as drawn. The source made the active and inactive calls. The rule behind the calls is not given here. Where a SMILES comes first, the peptide text is derived from it. [ ]: non-standard residue; d: D form. Bip = N[C@@H](Cc1ccc(-c2ccccc2)cc1)C(=O)O

Tests used:
Staphylococcus aureus [1] = assay: Antibacterial activity against Staphylococcus aureus clinical isolate UAMS-1 incubated for 20 hrs by microplate reader analysis; format: functional; conditions: isolate UAMS-1, 20 h
Staphylococcus aureus [2] = assay: Antibiofilm activity against Staphylococcus aureus clinical isolate USA300 assessed as inhibition of bacterial attachment at 3.1 to 25 uM incubated for 1 hr by XTT/PMS assay; format: functional, organism-based
Staphylococcus aureus [3] = assay: Antibacterial activity against Staphylococcus aureus clinical isolate USA400 incubated for 20 hrs by microplate reader analysis; format: functional; conditions: isolate USA400, 20 h
Staphylococcus aureus [4] = assay: Antibiofilm activity against Staphylococcus aureus clinical isolate USA300 assessed as 24 hr preformed biofilm disruption at 3.1 to 25 uM incubated for 24 hrs by XTT assay; format: functional, organism-based
Staphylococcus aureus [5] = assay: Antibacterial activity against Staphylococcus aureus clinical isolate USA300 incubated for 20 hrs by microplate reader analysis; format: functional; conditions: isolate USA300, 20 h
Staphylococcus aureus [6] = assay: Antibiofilm activity against Staphylococcus aureus Newman assessed as 24 hr preformed biofilm disruption at 3.1 to 25 uM incubated for 24 hrs by XTT assay; format: functional, organism-based
Staphylococcus aureus [7] = assay: Antibacterial activity against Staphylococcus aureus Newman incubated for 20 hrs by microplate reader analysis; format: functional
Staphylococcus aureus [8] = assay: Inhibition of biofilm formation in Staphylococcus aureus clinical isolate USA300 at 3.1 uM incubated for 24 hrs by XTT/PMS assay relative to control; format: functional; conditions: isolate USA300, 24 h
Staphylococcus aureus [9] = assay: Antibiofilm activity against Staphylococcus aureus clinical isolate USA200 assessed as 24 hr preformed biofilm disruption at 3.1 to 25 uM incubated for 24 hrs by XTT assay; format: functional, organism-based
Staphylococcus aureus [10] = assay: Antibiofilm activity against Staphylococcus aureus clinical isolate USA400 assessed as 24 hr preformed biofilm disruption at 3.1 to 25 uM incubated for 24 hrs by XTT assay; format: functional, organism-based
Staphylococcus aureus [11] = assay: Inhibition of biofilm formation in Staphylococcus aureus clinical isolate USA300 at 6.2 to 25 uM incubated for 24 hrs by XTT/PMS assay; format: functional, organism-based
Staphylococcus aureus [12] = assay: Antibacterial activity against Staphylococcus aureus Mu50 incubated for 20 hrs by microplate reader analysis; format: functional; conditions: Mu50, 20 h
Staphylococcus aureus [13] = assay: Antibiofilm activity against Staphylococcus aureus clinical isolate UAMS-1 assessed as 24 hr preformed biofilm disruption at 3.1 to 25 uM incubated for 24 hrs by XTT assay; format: functional, organism-based
Staphylococcus aureus [14] = assay: Antibacterial activity against Staphylococcus aureus clinical isolate USA200 incubated for 20 hrs by microplate reader analysis; format: functional; conditions: isolate USA200, 20 h
Staphylococcus aureus [15] = assay: Antibiofilm activity against Staphylococcus aureus Mu50 assessed as 24 hr preformed biofilm disruption at 3.1 to 25 uM incubated for 24 hrs by XTT assay; format: functional, organism-based
Staphylococcus aureus [16] = assay: Antibiofilm activity against Staphylococcus aureus clinical isolate USA300 assessed as inhibition of bacterial attachment at 25 uM incubated for 1 hr by XTT/PMS assay; format: functional, organism-based
Staphylococcus aureus [17] = assay: Inhibition of biofilm formation in Staphylococcus aureus clinical isolate USA300 at 3.1 to 25 uM incubated for 24 hrs by XTT/PMS assay; format: functional, organism-based
Staphylococcus aureus [18] = assay: Antibiofilm activity against Staphylococcus aureus clinical isolate USA300 assessed as disruption of 72 hr-preformed biofilm at 6.2 uM incubated for 24 hrs by XTT assay in presence of 1.6 uM vancomycin; format: functional, organism-based
HaCaT = assay: Cytotoxic activity against human HaCaT cells assessed as reduction in cell viability at 20 to 100 uM incubated for 1 hr by MTS assay; format: cell-based
[19] = Hemolytic activity against human RBC after 1 hr by microplate reader analysis; format: ADME, cell-based, Erythrocyte; conditions: red blood cells
Staphylococcus aureus [20] = assay: Antibiofilm activity against Staphylococcus aureus clinical isolate USA300 assessed as disruption of 72 hr-preformed biofilm at 6.2 uM incubated for 24 hrs by XTT assay in presence of 1.6 uM daptomycin; format: functional, organism-based
Staphylococcus aureus [21] = assay: Antibiofilm activity against Staphylococcus aureus clinical isolate USA300 assessed as dead cells at 3.1 to 25 uM incubated for 24 hrs by SYTO 9/propidium iodide staining based confocal laser scanning microscopy; format: functional, organism-based
Staphylococcus aureus [22] = assay: Antibiofilm activity against Staphylococcus aureus harboring fnbA mutant assessed as inhibition of bacterial attachment at 3.1 to 25 uM incubated for 24 hrs by XTT/PMS assay; format: functional, organism-based
Staphylococcus aureus [23] = assay: Antibiofilm activity against Staphylococcus aureus clinical isolate USA400 assessed as 24 hr preformed biofilm disruption at 12.5 to 25 uM incubated for 24 hrs by XTT assay; format: functional, organism-based
Staphylococcus aureus [24] = assay: Antibiofilm activity against Staphylococcus aureus harboring sasC mutant assessed as 24 hr preformed biofilm disruption at 3.1 to 25 uM incubated for 24 hrs by XTT assay; format: functional, organism-based
Staphylococcus aureus [25] = assay: Antibiofilm activity against Staphylococcus aureus clinical isolate USA200 assessed as 24 hr preformed biofilm disruption at 12.5 to 25 uM incubated for 24 hrs by XTT assay; format: functional, organism-based
Staphylococcus aureus [26] = assay: Antibiofilm activity against Staphylococcus aureus harboring […] mutant assessed as inhibition of bacterial attachment at 3.1 to 25 uM incubated for 24 hrs by XTT/PMS assay; format: functional, organism-based
Staphylococcus aureus [27] = assay: Antibiofilm activity against Staphylococcus aureus JE2 assessed as inhibition of bacterial attachment at 3.1 to 25 uM incubated for 24 hrs by XTT/PMS assay; format: functional, organism-based
Staphylococcus aureus [28] = assay: Antibiofilm activity against Staphylococcus aureus harboring sasC mutant assessed as inhibition of bacterial attachment at 3.1 to 25 uM incubated for 24 hrs by XTT/PMS assay; format: functional, organism-based
Staphylococcus aureus [29] = assay: Antibiofilm activity against Staphylococcus aureus harboring fnbA mutant assessed as 24 hr preformed biofilm disruption at 3.1 to 25 uM incubated for 24 hrs by XTT assay; format: functional, organism-based
Staphylococcus aureus [30] = assay: Antibiofilm activity against Staphylococcus aureus harboring […] mutant assessed as 24 hr preformed biofilm disruption at 3.1 to 25 uM incubated for 24 hrs by XTT assay; format: functional, organism-based
Staphylococcus aureus [31] = assay: Antibiofilm activity against Staphylococcus aureus Newman assessed as 24 hr preformed biofilm disruption at 12.5 to 25 uM incubated for 24 hrs by XTT assay; format: functional, organism-based
Staphylococcus aureus [32] = assay: Antibiofilm activity against Staphylococcus aureus JE2 assessed as 24 hr preformed biofilm disruption at 3.1 to 25 uM incubated for 24 hrs by XTT assay; format: functional, organism-based
Staphylococcus aureus [33] = assay: Antibiofilm activity against Staphylococcus aureus clinical isolate USA300 assessed as 24 hr preformed biofilm disruption at 12.5 to 25 uM incubated for 24 hrs by XTT assay; format: functional, organism-based
Staphylococcus aureus [34] = assay: Antibiofilm activity against Staphylococcus aureus clinical isolate UAMS-1 assessed as 24 hr preformed biofilm disruption at 12.5 to 25 uM incubated for 24 hrs by XTT assay; format: functional, organism-based
Staphylococcus aureus [35] = assay: Antibiofilm activity against Staphylococcus aureus Mu50 assessed as 24 hr preformed biofilm disruption at 12.5 to 25 uM incubated for 24 hrs by XTT assay; format: functional, organism-based

Compound | MIC (Staphylococcus aureus [1]) | MIC (Staphylococcus aureus [3]) | Activity (Staphylococcus aureus [4]) | MIC (Staphylococcus aureus [5]) | Activity (Staphylococcus aureus [6]) | MIC (Staphylococcus aureus [7]) | Activity (Staphylococcus aureus [9]) | Activity (Staphylococcus aureus [10]) | MIC (Staphylococcus aureus [12]) | Activity (Staphylococcus aureus [13]) | MIC (Staphylococcus aureus [14]) | Activity (Staphylococcus aureus [15]) | inhibition (Staphylococcus aureus [16]) | inhibition (Staphylococcus aureus [17]) | Activity (Staphylococcus aureus [18]) | Activity (HaCaT) | HC50 at 1 h [19] | Activity (Staphylococcus aureus [20]) | Activity (Staphylococcus aureus [21]) | other results
CC[C@H](C)[C@H](NC(=O)[C@H](CCCCN)NC(=O)[C@H](CCC(=O)O)NC(=O)[C@H](CCCCN)NC(=O)[C@H](CO)NC(=O)[C@H](CCCCN)NC(=O)[C@H](CCCNC(=N)N)NC(=O)[C@H](Cc1ccccc1)NC(=O)[C@H](Cc1ccccc1)NC(=O)[C@H](CC(=O)O)NC(=O)CNC(=O)[C@H](CC(C)C)NC(=O)[C@@H](N)CC(C)C)C(=O)NCC(=O)N[C@@H](CCCCN)C(=O)N[C@@H](CCC(=O)O)C(=O)N[C@@H](Cc1ccccc1)C(=O)N[C@@H](CCCCN)C(=O)N[C@@H](CCCNC(=N)N)C(=O)N[C@H](C(=O)N[C@H](C(=O)N[C@@H](CCC(N)=O)C(=O)N[C@@H](CCCNC(=N)N)C(=O)N[C@H](C(=O)N[C@@H](CCCCN)C(=O)N[C@@H](CC(=O)O)C(=O)N[C@@H](Cc1ccccc1)C(=O)N[C@@H](CC(C)C)C(=O)N[C@@H](CCCNC(=N)N)C(=O)N[C@@H](CC(N)=O)C(=O)N[C@@H](CC(C)C)C(=O)N[C@H](C(=O)N1CCC[C@H]1C(=O)N[C@@H](CCCNC(=N)N)C(=O)N[C@H](C(=O)N[C@@H](CCC(=O)O)C(=O)N[C@@H](CO)C(=O)O)[C@@H](C)O)C(C)C)[C@@H](C)CC)C(C)C)[C@@H](C)CC [CATHELICIDIN] | > 50 µM | 6.25 µM (≈ 28.1 µg/mL) | inactive | 12.5 µM (≈ 56.2 µg/mL) | inactive | > 50 µM | inactive | inactive | > 50 µM | inactive | > 50 µM | inactive |  |  |  |  |  |  |  | inhibition (Staphylococcus aureus [2]): inactive; inhibition at 3.1 µM (Staphylococcus aureus [8]): 50%; inhibition (Staphylococcus aureus [11]): inactive
CC[C@H](C)[C@H](NC(=O)[C@H](CCCNC(=N)N)NC(=O)[C@H](CCC(N)=O)NC(=O)[C@@H](NC(=O)[C@@H](NC(=O)[C@@H](N)CCCNC(=N)N)[C@@H](C)CC)C(C)C)C(=O)N[C@@H](CCCCN)C(=O)N[C@@H](CC(=O)O)C(=O)N[C@@H](Cc1ccccc1)C(=O)N[C@@H](CC(C)C)C(=O)O (H-RIVQRIKDFL-OH) | > 50 µM | > 50 µM | inactive | > 50 µM | inactive | > 50 µM | inactive | inactive | > 50 µM | inactive | > 50 µM | inactive | Active | inactive |  |  |  |  |  | 
CC[C@H](C)[C@H](NC(=O)[C@H](CCCNC(=N)N)NC(=O)[C@H](CCC(N)=O)NC(=O)[C@@H](NC(=O)[C@@H](NC(=O)[C@H](CCCNC(=N)N)NC(=O)[C@H](CCCCN)NC(=O)[C@H](Cc1ccccc1)NC(=O)CN)[C@@H](C)CC)C(C)C)C(=O)N[C@@H](CCCCN)C(=O)N[C@@H](CC(=O)O)C(=O)N[C@@H](Cc1ccccc1)C(=O)N[C@@H](CC(C)C)C(=O)N[C@@H](CCCNC(=N)N)C(=O)N[C@@H](CC(N)=O)C(=O)N[C@@H](CC(C)C)C(=O)N[C@H](C(=O)O)C(C)C (H-GFKRIVQRIKDFLRNLV-OH) | 3.1 µM (≈ 6.52 µg/mL) | 1.56 µM (≈ 3.28 µg/mL) | Active | 1.56 µM (≈ 3.28 µg/mL) | Active | 1.56 µM (≈ 3.28 µg/mL) | Active | Active | 1.56 µM (≈ 3.28 µg/mL) | inactive | 1.56 µM (≈ 3.28 µg/mL) | Active | Active | Active | Active | Non-toxic | 120 µM | Active | Active | 
CC(C)C[C@H](NC(=O)[C@H](Cc1ccc(-c2ccccc2)cc1)NC(=O)[C@H](CC(=O)O)NC(=O)[C@H](CCCCN)NC(=O)[C@H](CC(C)C)NC(=O)[C@H](CCCNC(=N)N)NC(=O)[C@H](CCC(N)=O)NC(=O)[C@@H](NC(=O)[C@H](CC(C)C)NC(=O)[C@H](CCCNC(=N)N)NC(=O)[C@H](CCCCN)NC(=O)[C@H](Cc1ccc(-c2ccccc2)cc1)NC(=O)CN)C(C)C)C(=O)N[C@@H](CCCNC(=N)N)C(=O)N[C@@H](CC(N)=O)C(=O)N[C@@H](CC(C)C)C(=O)N[C@H](C(N)=O)C(C)C (H-G[Bip]KRLVQRLKD[Bip]LRNLV-NH2) | 3.1 µM (≈ 6.99 µg/mL) | 3.1 µM (≈ 6.99 µg/mL) |  | 3.1 µM (≈ 6.99 µg/mL) |  | 3.1 µM (≈ 6.99 µg/mL) |  |  | 3.1 µM (≈ 6.99 µg/mL) |  | 3.1 µM (≈ 6.99 µg/mL) |  | Active | Active | Active | Non-toxic | 120 µM | Active | Active | inhibition (Staphylococcus aureus [22]): Active; Activity (Staphylococcus aureus [23]): Active; Activity (Staphylococcus aureus [24]): Active; Activity (Staphylococcus aureus [25]): Active; inhibition (Staphylococcus aureus [26]): Active; inhibition (Staphylococcus aureus [27]): Active; inhibition (Staphylococcus aureus [28]): Active; Activity (Staphylococcus aureus [29]): Active; Activity (Staphylococcus aureus [30]): Active; Activity (Staphylococcus aureus [31]): Active; Activity (Staphylococcus aureus [32]): Active; Activity (Staphylococcus aureus [33]): Active; Activity (Staphylococcus aureus [34]): Active; Activity (Staphylococcus aureus [35]): Active
